The values that follow come from patent US10023593B2, “ALK kinase inhibitor, and preparation method and uses thereof” (BEIJING PEARL BIOTECHNOLOGY LIMITED LIABILITY COMPANY, priority 2014, dated 2018).

pIC50: −log10 of the molar value.

The test system of this assay is NCI-H2228 cell line. In words: CellTiter-Glo cell proliferation inhibition on NCI-H2228 cell line. It counts as cell-based. The conditions noted are these: Homo sapiens, NCI-H2228, 96 h, NCI-H2228 cells, 5000 cells/well, 4 days drug treatment. The method, then: 3. Cell Proliferation Inhibitory Activities of the Compounds of the Present Invention on NCI-H2228 Cell Line
? experimental method ? CellTiter-Glo® Luminescent Cell Viability Assay kit from Promega company was used to detect cell proliferation inhibitory activities of the compounds on NCI-H2228 cell line.
? instrument ? Envision 2104 plate reader from PerKinElmer company; Vi-Cell XR cell counter from Beckman Counter company; MCO-18AIC CO2 incubator from SANYO company.
? experiment material ? CellTiter-Glo® Luminescent Cell Viability Assay Kit (Promega company, catalog No. G7573); NCI-H2228 cell line (ATCC, catalog No. CRL-5935); RPMI-1640 medium (HyClone company, catalog No. SH30809.01B); fetal bovine serum (FBS) (Gibco company, catalog No. 10099-141); trypsin (Trypsin) (Gibco company, catalog No. 25200-072); PBS (HyClone company, catalog No. SH30256.01B); 96 wells cell culture plate (Corning company, catalog No. 3610); DMSO (AMRESCO company, catalog No. 0231); 96 wells plates (for diluting compounds) (CITOTEST company, catalog No. Ref36020096D);
? experimental condition ? NCI-H2228 cells in exponential growth phase were collected and treated with trypsin (Trypsin), and viable cells were counted by Vi-Cell XR cell counter. Cell suspension was adjusted to 62500 cells/ml with culture medium (RPMI-1640+10% FBS). 80 μl cell suspension was added into each well of 96 wells cell culture plate so that the final cell number of NCI-H2228 cells was 5000 cells/well. The cells were cultivated in an incubator with an atmosphere of 37° C., 5% CO2 and 95% humidity for 2 hours and then each well was added with 20 μl compounds in RPMI-1640 medium solution (the final concentration of DMSO was 0.5%). 4 days after drug treatment, each well was added with 50 μl CellTiter-Glo solution which was previously thawed and equilibrated to room temperature, and mixed for 2 minutes with microplate shaker. After placing at room temperature for 10 minutes, luminescence value was measured by PerkinElmer Envision 2104 plate reader and the data was analyzed.
? tested samples ? Compounds of the examples.
? data analysis ? Luminescence value of DMSO solvent control (Vvehicle control, which is the mean luminescence value from DMSO solvent control group)
Tested luminescence value (Vsample, which is the luminescence value from given concentration of compounds group) Inhibition rate (%)=(1−Vsample/Vvehicle control)×100
? data processing ? IC50 of compounds was calculated by using XLfit program in Excel.
For orientation: In ATP-based viability assays light output follows the ATP content of the culture.
Broadly, the pIC50 is −log10 of the IC50, conventionally taken in molar units. High values mean a small IC50, low ones a large IC50. Molecule `Cc1cc(Nc2ncc(Cl)c(Nc3cn(C)nc3S(=O)(=O)CC(C)C)n2)c(OC2CC2)cc1C1CCCN(C)C1` (stereo not drawn) [Final product 61] had a pIC50 of 7.07.
`Cc1cc(Nc2ncc(Cl)c(Nc3cn(C)nc3S(=O)(=O)C(C)C)n2)c(OC(C)C)cc1C1CCCN(C)C1` (stereo not drawn) [Final product 62]: the pIC50 was 6.91.
Next, `Cc1cc(Nc2ncc(Cl)c(Nc3cn(C)nc3S(=O)(=O)C(C)C)n2)c(OC2CCC2)cc1C1CCN(C)CC1` [Final product 63]: 7.51; `COc1cc(C2CCN(C)CC2)c(C)cc1Nc1ncc(Cl)c(Nc2cn(C)nc2S(=O)(=O)C(C)C)n1` [Final product 64]: 7.51; `CCOc1cc(C2CCN(C)CC2)c(C)cc1Nc1ncc(Cl)c(Nc2cn(C)nc2S(=O)(=O)C(C)C)n1` [Final product 65]: 7.42.
Next, `CCCOc1cc(C2CCN(C)CC2)c(C)cc1Nc1ncc(Cl)c(Nc2cn(C)nc2S(=O)(=O)C(C)C)n1` [Final product 66]: 7.23; `CC(C)Oc1cc(C2CCN(C)CC2)c(C2CC2)cc1Nc1ncc(Cl)c(Nc2cn(C)nc2S(=O)(=O)C(C)C)n1` [Final product 68]: 6.82.
Consider `CCCc1cc(Nc2ncc(Cl)c(Nc3cn(C)nc3S(=O)(=O)C(C)C)n2)c(OC(C)C)cc1C1CCN(C)CC1` [Final product 69], for which the negative logarithm of the IC50 (pIC50) was 6.75.
Next, `Cc1cc(Nc2ncc(F)c(Nc3cn(C)nc3S(=O)(=O)C(C)C)n2)c(OC(C)C)cc1C1CCN(C)CC1` [Final product 71]: 6.70.
Under `Cc1cc(Nc2ncc(C)c(Nc3cn(C)nc3S(=O)(=O)C(C)C)n2)c(OC(C)C)cc1C1CCN(C)CC1` [Final product 73] stands 6.82; under `Cc1cc(Nc2ncc(Cl)c(Nc3cn(C)nc3S(=O)(=O)C(C)C)n2)c(OC2CC2)cc1C1CC2COCC(C1)N2C` (stereo not drawn) [Final product 74], 7.72.
Next, `Cc1cc(Nc2ncc(Cl)c(Nc3cn(C)nc3S(=O)(=O)C(C)C)n2)c(OC2CC2)cc1CN1CCN(C)CC1` [Final product 75]: 6.96; `Cc1cc(Nc2ncc(Cl)c(Nc3cn(C)nc3S(=O)(=O)C(C)C)n2)c(OC2CC2)cc1OC1CN(C)C1` [Final product 76]: 6.67; `COCC1CC(c2cc(OC(C)C)c(Nc3ncc(Cl)c(Nc4cn(C)nc4S(=O)(=O)C(C)C)n3)cc2C)CCN1C` (stereo not drawn) [Final product 78]: 6.89.
Regarding `COCC(C)(C)N1CCC(c2cc(OC3CC3)c(Nc3ncc(Cl)c(Nc4cn(C)nc4S(=O)(=O)C(C)C)n3)cc2C)CC1` [Final product 84], the pIC50 was 7.34.
In the case of `COCC(C)(C)N1CCC(c2cc(OC(C)C)c(Nc3ncc(Cl)c(Nc4cn(C)nc4S(=O)(=O)C(C)C)n3)cc2C)CC1` [Final product 85], the pIC50 was 7.11.
Next, `Cc1cc(Nc2ncc(Cl)c(Nc3cn(C)nc3S(=O)(=O)C3CCC3)n2)c(OC(C)C)cc1C1CCN(C)CC1` [Final product 86]: 6.92; `Cc1cc(Nc2ncc(Cl)c(Nc3cn(C)nc3S(=O)(=O)C(C)C)n2)c(OC2CC2)cc1C1CCN(C)CC1Cl` (stereo not drawn) [Final product 89]: 6.97.
Under `Cc1cc(Nc2ncc(Cl)c(Nc3cn(C)nc3S(=O)(=O)CC(C)C)n2)c(OC2CC2)cc1C1CCN(C)CC1C` (stereo not drawn) [Final product 91] stands 7.12.
Under `Cc1cc(Nc2ncc(Cl)c(Nc3cn(C)nc3S(=O)(=O)CC(C)C)n2)c(OC2CC2)cc1C1CCN(C)C(C)C1` (stereo not drawn) [Final product 93] stands 7.17.
In the case of `Cc1cc(Nc2ncc(Cl)c(Nc3cn(C)nc3S(=O)(=O)C(C)C)n2)c(OC(C)C)cc1C1CCN(C)C(C)C1` (stereo not drawn) [Final product 94], the negative-log IC50 (pIC50) is 7.10.
Next, `Cc1cc(Nc2ncc(Cl)c(Nc3cn(C)nc3S(=O)(=O)CC(C)C)n2)c(OC2CC2)cc1C1CC(C)N(C)C(C)C1` (stereo not drawn) [Final product 96]: 7.07; `Cc1cc(Nc2ncc(Cl)c(Nc3cn(C)nc3S(=O)(=O)C(C)C)n2)c(OC(C)C)cc1C1CC(C)(C)N(C)C(C)(C)C1` [Final product 98]: 6.62.
For the molecule `Cc1cc(Nc2ncc(Cl)c(Nc3cn(C)nc3S(=O)(=O)C(C)C)n2)c(OC2CC2)cc1C1CCN(C)CC1(C)C` (stereo not drawn) [Final product 99], the pIC50 is 7.24. This pIC50 lies 0.62 log units higher than the previous one.
Next, `Cc1cc(Nc2ncc(Cl)c(Nc3cn(C)nc3S(=O)(=O)C(C)C)n2)c(OC2CC2)cc1C1CCN(C)C(C(=O)N(C)C)C1` (stereo not drawn) [Final product 101]: 7.59; `Cc1cc(Nc2ncc(Cl)c(Nc3cn(C)nc3S(=O)(=O)C(C)C)n2)c(OC2CC2)cc1C1CCCCN1C` (stereo not drawn) [Final product 102]: 6.99; `Cc1cc(Nc2ncc(Cl)c(Nc3cn(C)nc3S(=O)(=O)CC(C)C)n2)c(OC2CC2)cc1C1CCN(C)C(=O)C1` (stereo not drawn) [Final product 104]: 7.15.
Under `Cc1cc(Nc2ncc(Cl)c(Nc3cn(C)nc3S(=O)(=O)C(C)C)n2)c(OC2CC2)cc1C1CCN2CCCC2C1` (stereo not drawn) [Final product 105] stands 7.20.
Under `Cc1cc(Nc2ncc(Cl)c(Nc3cn(C)nc3S(=O)(=O)C(C)C)n2)c(OC2CC2)cc1C1CCCN(C)CC1` (stereo not drawn) [Final product 106] stands 7.47.
`Cc1cc(Nc2ncc(Cl)c(Nc3cn(C)nc3S(=O)(=O)C(C)C)n2)c(OC2CC2)cc1C1CC2COCC(C1)N2` (stereo not drawn) [Final product 108] showed a pIC50 of 7.48.
Next, `Cc1cc(Nc2ncc(Cl)c(Nc3cn(C)nc3S(=O)(=O)C(C)C)n2)c(OC2CC2)cc1C1CC2CN(C)CC(C1)O2` (stereo not drawn) [Final product 109]: 6.96.
Under `Cc1cc(Nc2ncc(Cl)c(Nc3cn(C)nc3S(=O)(=O)C(C)C)n2)c(OC2CC2)cc1C1CCS(=O)(=O)CC1` [Final product 110] stands 7.01; under `CC(C)S(=O)(=O)c1nn(C)cc1Nc1nc(Nc2cc3c(cc2OC2CC2)CN(C)CC3)ncc1Cl` [Final product 112], 6.68.
Next, `CCOc1cc(C2CCN(CC)CC2)c(C)cc1Nc1ncc(Cl)c(Nc2cn(C)nc2S(=O)(=O)C(C)C)n1` [Final product 116]: 7.47.
For `CCN1CCC(c2cc(OC3CC3)c(Nc3ncc(Cl)c(Nc4cn(C)nc4S(=O)(=O)CC(C)C)n3)cc2C)CC1` [Final product 117], the pIC50 is 6.80. This pIC50 lies 0.67 log units lower than the previous one.
Under `CCN1CCCC(c2cc(OC(C)C)c(Nc3ncc(Cl)c(Nc4cn(C)nc4S(=O)(=O)C(C)C)n3)cc2C)C1` (stereo not drawn) [Final product 119] stands 6.71; under `CCN1CCCC(c2cc(OC3CC3)c(Nc3ncc(Cl)c(Nc4cn(C)nc4S(=O)(=O)C(C)C)n3)cc2C)C1` (stereo not drawn) [Final product 120], 7.03.
`CCN1CCCC(c2cc(OC3CC3)c(Nc3ncc(Cl)c(Nc4cn(C)nc4S(=O)(=O)CC(C)C)n3)cc2C)C1` (stereo not drawn) [Final product 121]: the pIC50 was 6.77.
As for `CCN1CCC(c2cc(OC3CCC3)c(Nc3ncc(Cl)c(Nc4cn(C)nc4S(=O)(=O)C(C)C)n3)cc2C)CC1` [Final product 122], the pIC50 was 7.10.
Under `COc1cc(C2CCN(C(C)C)CC2)c(C)cc1Nc1ncc(Cl)c(Nc2cn(C)nc2S(=O)(=O)C(C)C)n1` [Final product 124] stands 7.07.
Under `CCOc1cc(C2CCN(C(C)C)CC2)c(C)cc1Nc1ncc(Cl)c(Nc2cn(C)nc2S(=O)(=O)C(C)C)n1` [Final product 125] stands 7.33; under `Cc1cc(Nc2ncc(Cl)c(Nc3cn(C)nc3S(=O)(=O)C(C)C)n2)c(OC(C)C)cc1C1CCCN(C(C)C)C1` (stereo not drawn) [Final product 128], 6.89; under `Cc1cc(Nc2ncc(Cl)c(Nc3cn(C)nc3S(=O)(=O)C(C)C)n2)c(OC2CC2)cc1C1CCCN(C(C)C)C1` (stereo not drawn) [Final product 129], 7.49.
Next, `Cc1cc(Nc2ncc(Cl)c(Nc3cn(C)nc3S(=O)(=O)CC(C)C)n2)c(OC2CC2)cc1C1CCCN(C(C)C)C1` (stereo not drawn) [Final product 130]: 7.55; `Cc1cc(Nc2ncc(Cl)c(Nc3cn(C)nc3S(=O)(=O)C(C)C)n2)c(OC2CCC2)cc1C1CCN(C(C)C)CC1` [Final product 131]: 7.28; `Cc1cc(Nc2ncc(Cl)c(Nc3cn(C)nc3S(=O)(=O)C(C)C)n2)c(OC(C)C)cc1C1CN(C(C)C)C1` [Final product 132]: 6.68.
The molecule `Cc1cc(Nc2ncc(Cl)c(Nc3cn(C)nc3S(=O)(=O)C(C)C)n2)c(OC(C)C)cc1C1CN(CCO)C1` [Final product 134] had a pIC50 of 6.87.
Under `Cc1cc(Nc2ncc(Cl)c(Nc3cn(C)nc3S(=O)(=O)C(C)C)n2)c(OC(C)C)cc1C1CCN(CCO)CC1` [Final product 136] stands 6.95.
